Numbered stars: 1 amine (or outer) side, 2 acyl side, 3 side chain; on linkers, the order of the positions; unused ones are H or OH. Square brackets hold non-standard residues; d marks the D form. Peptide text beside a SMILES is read from it. * marks the point of attachment. Benzenesulfonyl(4-Cl,3-CF3) = O=S(=O)(c1ccc(Cl)c(C(F)(F)F)c1)*; Ala(4-Pyridazinyl) = N[C@@H](Cc1ccnnc1)C(=O)O; Ala(thiazol-2-yl) = N[C@@H](Cc1nccs1)C(=O)O; Ala(4-thiazolyl) = N[C@@H](Cc1cscn1)C(=O)O; Phe(3-I) = N[C@@H](Cc1cccc(I)c1)C(=O)O; γGlu = O=C(O)[C@H](CCC(=O)[*:2])N[*:1]; Phe(2-I) = N[C@@H](Cc1ccccc1I)C(=O)O; 2Pal = N[C@@H](Cc1ccccn1)C(=O)O; Tle = CC(C)(C)[C@H](N)C(=O)O; β3hP = O=C(O)C[C@@H]1CCCN1
Assays:
[1] = biological target: T1, Matrilysin (Homo sapiens, UniProt P09237); assay: Inhibition of recombinant human MMP7 using MOCAc-Pro-Leu-Gly-Leu-A2pr-(Dnp)-Ala-Arg-NH2 as substrate preincubated with compound for 15 mins followed by substrate addition and measured after 2 hrs by fluorescence based analysis
T1 sequence (P09237 whole entry): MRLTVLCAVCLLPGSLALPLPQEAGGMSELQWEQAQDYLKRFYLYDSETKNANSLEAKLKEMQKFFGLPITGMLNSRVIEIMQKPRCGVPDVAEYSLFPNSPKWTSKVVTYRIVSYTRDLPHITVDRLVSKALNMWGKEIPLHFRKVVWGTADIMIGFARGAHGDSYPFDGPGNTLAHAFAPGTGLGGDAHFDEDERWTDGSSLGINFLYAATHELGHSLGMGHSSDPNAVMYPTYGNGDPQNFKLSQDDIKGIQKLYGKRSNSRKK

[2] = biological target: Matrix metalloproteinase-14 (Homo sapiens, UniProt P50281); assay: Inhibition of recombinant human MMP14 using MOCAc-Lys-Pro-Leu-Gly-Leu-A2pr(Dnp)-Ala-Arg-NH2 as substrate preincubated with compound for 15 mins followed by substrate addition and measured after 1 hrs by fluorescence based analysis
[3] = biological target: Neutrophil collagenase (Homo sapiens, UniProt P22894); assay: Inhibition of recombinant human MMP8 using MOCAc-Pro-Leu-Gly-Leu-A2pr-(Dnp)-Ala-Arg-NH2 as substrate preincubated with compound for 15 mins followed by substrate addition and measured after 1 hrs by fluorescence based analysis
[4] = biological target: Collagenase 3 (Homo sapiens, UniProt P45452); assay: Inhibition of recombinant human MMP13 using MOCAc-Pro-Leu-Gly-Leu-A2pr-(Dnp)-Ala-Arg-NH2 as substrate preincubated with compound for 15 mins followed by substrate addition and measured after 1 hrs by fluorescence based analysis
[5] = species on record: Homo sapiens; assay: Selectivity ratio of IC50 for inhibition of recombinant human MMP9 to IC50 for inhibition of recombinant human MMP7
[6] = species on record: Homo sapiens; assay: Selectivity ratio of IC50 for inhibition of recombinant human MMP12 to IC50 for inhibition of recombinant human MMP7
[7] = species on record: Homo sapiens; assay: Selectivity ratio of IC50 for inhibition of recombinant human MMP3 to IC50 for inhibition of recombinant human MMP7
[8] = species on record: Homo sapiens; assay: Selectivity ratio of IC50 for inhibition of recombinant human MMP8 to IC50 for inhibition of recombinant human MMP7
[9] = species on record: Homo sapiens; assay: Selectivity ratio of IC50 for inhibition of recombinant human MMP13 to IC50 for inhibition of recombinant human MMP7
[10] = biological target: Matrix metalloproteinase-9 (Homo sapiens, UniProt P14780); assay: Inhibition of recombinant human MMP9 using MOCAc-Pro-Leu-Gly-Leu-A2pr-(Dnp)-Ala-Arg-NH2 as substrate preincubated with compound for 15 mins followed by substrate addition and measured after 1 hrs by fluorescence based analysis
[11] = biological target: Macrophage metalloelastase (Homo sapiens, UniProt P39900); assay: Inhibition of recombinant human MMP12 using MOCAc-Pro-Leu-Gly-Leu-A2pr-(Dnp)-Ala-Arg-NH2 as substrate preincubated with compound for 15 mins followed by substrate addition and measured after 1 hrs by fluorescence based analysis
[12] = species on record: Homo sapiens; assay: Selectivity ratio of IC50 for inhibition of recombinant human MMP1 to IC50 for inhibition of recombinant human MMP7
[13] = biological target: T2, Interstitial collagenase (Homo sapiens, UniProt P03956); assay: Inhibition of recombinant human MMP1 using MOCAc-Lys-Pro-Leu-Gly-Leu-A2pr(Dnp)-Ala-Arg-NH2 as substrate preincubated with compound for 15 mins followed by substrate addition and measured after 1 hrs by fluorescence based analysis
T2 sequence (P03956 whole entry): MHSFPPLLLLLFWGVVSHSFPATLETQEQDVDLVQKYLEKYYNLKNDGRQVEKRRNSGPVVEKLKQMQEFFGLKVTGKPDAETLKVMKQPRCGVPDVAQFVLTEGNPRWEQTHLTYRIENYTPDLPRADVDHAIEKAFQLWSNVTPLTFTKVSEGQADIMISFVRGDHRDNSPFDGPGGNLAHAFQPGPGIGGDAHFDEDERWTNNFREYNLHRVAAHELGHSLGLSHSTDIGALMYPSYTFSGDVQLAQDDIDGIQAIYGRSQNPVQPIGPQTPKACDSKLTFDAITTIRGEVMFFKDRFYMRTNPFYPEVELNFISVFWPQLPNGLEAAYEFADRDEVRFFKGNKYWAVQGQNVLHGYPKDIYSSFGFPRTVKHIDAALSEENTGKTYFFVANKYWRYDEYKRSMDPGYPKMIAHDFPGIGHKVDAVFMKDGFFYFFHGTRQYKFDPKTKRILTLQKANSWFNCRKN

[14] = species on record: Homo sapiens; assay: Selectivity ratio of IC50 for inhibition of recombinant human MMP2 to IC50 for inhibition of recombinant human MMP7
[15] = biological target: Stromelysin-1 (Homo sapiens, UniProt P08254); assay: Inhibition of recombinant human MMP3 using MOCAc-Arg-Pro-Lys-Pro-Val-Glu-Nva-Trp-Arg-Lys(Dnp)-NH2 as substrate preincubated with compound for 15 mins followed by substrate addition and measured after 1 hrs by fluorescence based analysis
[16] = biological target: 72 kDa type IV collagenase (Homo sapiens, UniProt P08253); assay: Inhibition of recombinant human MMP2 using MOCAc-Pro-Leu-Gly-Leu-A2pr-(Dnp)-Ala-Arg-NH2 as substrate preincubated with compound for 15 mins followed by substrate addition and measured after 1 hrs by fluorescence based analysis
[17] = species on record: Homo sapiens; assay: Selectivity ratio of IC50 for inhibition of recombinant human MMP14 to IC50 for inhibition of recombinant human MMP7

Sequence of 72 kDa type IV collagenase (P08253 whole entry): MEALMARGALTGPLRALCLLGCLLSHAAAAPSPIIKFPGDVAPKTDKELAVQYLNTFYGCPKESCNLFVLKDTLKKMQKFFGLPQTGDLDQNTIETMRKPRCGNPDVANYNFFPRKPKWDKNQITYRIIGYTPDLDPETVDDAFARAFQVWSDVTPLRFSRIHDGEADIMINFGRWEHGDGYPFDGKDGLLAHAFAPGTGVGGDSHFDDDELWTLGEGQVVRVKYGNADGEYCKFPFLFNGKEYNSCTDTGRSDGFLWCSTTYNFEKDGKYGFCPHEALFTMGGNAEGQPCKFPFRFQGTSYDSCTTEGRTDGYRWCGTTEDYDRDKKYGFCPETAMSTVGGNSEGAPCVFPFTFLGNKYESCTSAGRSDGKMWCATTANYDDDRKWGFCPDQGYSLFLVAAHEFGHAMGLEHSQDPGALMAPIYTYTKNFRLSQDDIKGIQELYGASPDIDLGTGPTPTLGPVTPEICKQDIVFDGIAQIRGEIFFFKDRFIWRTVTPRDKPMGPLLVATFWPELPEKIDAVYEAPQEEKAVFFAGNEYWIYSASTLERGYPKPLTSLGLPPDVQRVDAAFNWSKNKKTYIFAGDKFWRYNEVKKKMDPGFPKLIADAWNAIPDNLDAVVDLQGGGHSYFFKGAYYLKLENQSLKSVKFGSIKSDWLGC
Sequence of Matrix metalloproteinase-9 (P14780 whole entry): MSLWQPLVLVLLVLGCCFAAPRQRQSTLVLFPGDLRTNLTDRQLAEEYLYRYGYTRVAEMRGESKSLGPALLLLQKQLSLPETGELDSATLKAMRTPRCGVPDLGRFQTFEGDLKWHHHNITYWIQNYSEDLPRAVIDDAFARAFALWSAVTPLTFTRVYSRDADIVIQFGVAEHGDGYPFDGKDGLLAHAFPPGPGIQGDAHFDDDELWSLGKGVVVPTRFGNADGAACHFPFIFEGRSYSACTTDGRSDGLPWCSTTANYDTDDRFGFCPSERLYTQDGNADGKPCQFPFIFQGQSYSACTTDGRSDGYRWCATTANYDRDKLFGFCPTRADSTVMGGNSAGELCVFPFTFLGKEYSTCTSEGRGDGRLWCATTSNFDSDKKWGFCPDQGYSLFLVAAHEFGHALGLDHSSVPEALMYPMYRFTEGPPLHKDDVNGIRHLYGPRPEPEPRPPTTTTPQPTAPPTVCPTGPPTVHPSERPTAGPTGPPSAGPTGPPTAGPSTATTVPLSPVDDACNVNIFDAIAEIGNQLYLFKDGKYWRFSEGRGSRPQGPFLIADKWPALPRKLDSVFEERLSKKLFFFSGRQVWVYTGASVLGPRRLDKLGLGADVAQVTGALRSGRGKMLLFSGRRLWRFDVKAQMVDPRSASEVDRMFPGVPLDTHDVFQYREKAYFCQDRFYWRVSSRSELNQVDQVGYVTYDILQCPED
Sequence of Macrophage metalloelastase (P39900 whole entry): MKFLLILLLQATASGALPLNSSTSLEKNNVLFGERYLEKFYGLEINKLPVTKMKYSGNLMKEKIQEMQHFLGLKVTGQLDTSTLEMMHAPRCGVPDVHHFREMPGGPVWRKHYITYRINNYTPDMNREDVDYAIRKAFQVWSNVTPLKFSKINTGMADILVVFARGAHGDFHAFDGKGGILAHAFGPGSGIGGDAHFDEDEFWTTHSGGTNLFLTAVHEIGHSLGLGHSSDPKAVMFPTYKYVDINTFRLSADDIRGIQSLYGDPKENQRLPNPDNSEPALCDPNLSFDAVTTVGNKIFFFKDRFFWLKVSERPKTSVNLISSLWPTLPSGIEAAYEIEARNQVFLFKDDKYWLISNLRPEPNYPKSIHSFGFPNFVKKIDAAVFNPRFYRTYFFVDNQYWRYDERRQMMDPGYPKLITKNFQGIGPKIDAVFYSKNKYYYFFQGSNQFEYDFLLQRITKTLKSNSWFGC
Sequence of Neutrophil collagenase (P22894 whole entry): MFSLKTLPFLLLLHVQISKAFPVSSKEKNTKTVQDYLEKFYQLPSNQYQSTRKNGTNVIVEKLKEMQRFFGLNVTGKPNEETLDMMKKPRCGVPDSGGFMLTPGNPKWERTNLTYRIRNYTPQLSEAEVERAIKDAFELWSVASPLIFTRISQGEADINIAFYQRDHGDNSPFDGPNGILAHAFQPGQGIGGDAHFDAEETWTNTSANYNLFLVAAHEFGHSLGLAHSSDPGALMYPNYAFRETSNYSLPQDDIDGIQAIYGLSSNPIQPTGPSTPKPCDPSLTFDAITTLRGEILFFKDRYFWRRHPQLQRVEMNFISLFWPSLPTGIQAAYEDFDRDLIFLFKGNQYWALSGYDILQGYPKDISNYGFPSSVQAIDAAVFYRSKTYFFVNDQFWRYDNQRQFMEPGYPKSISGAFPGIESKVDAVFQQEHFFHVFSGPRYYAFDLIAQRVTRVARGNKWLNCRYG
Sequence of Stromelysin-1 (P08254 whole entry): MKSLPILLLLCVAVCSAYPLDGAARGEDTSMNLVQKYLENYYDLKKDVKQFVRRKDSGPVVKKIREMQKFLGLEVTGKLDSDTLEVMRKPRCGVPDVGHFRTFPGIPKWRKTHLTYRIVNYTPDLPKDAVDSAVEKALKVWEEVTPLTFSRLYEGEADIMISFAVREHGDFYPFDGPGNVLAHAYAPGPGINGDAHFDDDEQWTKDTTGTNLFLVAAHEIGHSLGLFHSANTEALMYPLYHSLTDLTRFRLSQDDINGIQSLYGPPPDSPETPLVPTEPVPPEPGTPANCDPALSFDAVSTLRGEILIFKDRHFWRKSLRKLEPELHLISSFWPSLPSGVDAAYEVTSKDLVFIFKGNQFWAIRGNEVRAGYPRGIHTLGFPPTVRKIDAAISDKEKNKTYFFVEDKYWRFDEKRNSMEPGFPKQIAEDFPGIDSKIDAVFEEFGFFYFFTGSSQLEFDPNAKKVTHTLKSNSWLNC

IC50 [1] | IC50 [2] | SMILES | further results
12 nM | 3100 nM | CC(C)(C)[C@H](NC(=O)[C@H](Cc1cccc(I)c1)NC(=O)CNC(=O)CC[C@H](NS(=O)(=O)c1ccc(Cl)c(C(F)(F)F)c1)C(=O)O)C(=O)N1CCC[C@H]1CC(N)=O ({Benzenesulfonyl(4-Cl,3-CF3)-γGlu}-G[Phe(3-I)][Tle][β3hP]-NH2) | –
1.9 nM | 3500 nM | CC(C)(C)[C@H](NC(=O)[C@H](Cc1ccccn1)NC(=O)CNC(=O)CC[C@H](NS(=O)(=O)c1ccc(Cl)c(C(F)(F)F)c1)C(=O)O)C(=O)N1CCC[C@H]1CC(N)=O ({Benzenesulfonyl(4-Cl,3-CF3)-γGlu}-G[2Pal][Tle][β3hP]-NH2) | –
40 nM | 9300 nM | CC(C)(C)[C@H](NC(=O)[C@H](Cn1cc(C2CC2)nn1)NC(=O)CNC(=O)CC[C@H](NS(=O)(=O)c1ccc(Cl)c(C(F)(F)F)c1)C(=O)O)C(=O)N1CCC[C@H]1CC(N)=O | –
14 nM | 2000 nM | COc1ccc(C[C@H](NC(=O)CNC(=O)CC[C@H](NS(=O)(=O)c2ccc(Cl)c(C(F)(F)F)c2)C(=O)O)C(=O)N[C@H](C(=O)N2CCC[C@H]2CC(N)=O)C(C)(C)C)cc1 ({Benzenesulfonyl(4-Cl,3-CF3)-γGlu}-GY(Me)[Tle][β3hP]-NH2) | –
23 nM | 46000 nM | CC(C)Cn1cc(-c2ccc(C[C@H](NC(=O)CNC(=O)CC[C@H](NS(=O)(=O)c3ccc(Cl)c(C(F)(F)F)c3)C(=O)O)C(=O)N[C@H](C(=O)N3CCC[C@H]3CC(N)=O)C(C)(C)C)cc2)cn1 | –
8.8 nM | 3400 nM | CC(C)(C)[C@H](NC(=O)[C@H](Cc1ccccc1I)NC(=O)CNC(=O)CC[C@H](NS(=O)(=O)c1ccc(Cl)c(C(F)(F)F)c1)C(=O)O)C(=O)N1CCC[C@H]1CC(N)=O ({Benzenesulfonyl(4-Cl,3-CF3)-γGlu}-G[Phe(2-I)][Tle][β3hP]-NH2) | –

The next lines start with the compound.

SMILES | IC50 [1] | IC50 [2] | further results
CC(C)(C)[C@H](NC(=O)[C@H](Cc1ccnnc1)NC(=O)CNC(=O)CC[C@H](NS(=O)(=O)c1ccc(Cl)c(C(F)(F)F)c1)C(=O)O)C(=O)N1CCC[C@H]1CC(N)=O ({Benzenesulfonyl(4-Cl,3-CF3)-γGlu}-G[Ala(4-Pyridazinyl)][Tle][β3hP]-NH2) | 2.8 nM | 1400 nM | –
CC(C)C[C@H](NC(=O)CNC(=O)CC[C@H](NS(=O)(=O)c1ccc(Cl)c(C(F)(F)F)c1)C(=O)O)C(=O)N[C@H](C(=O)N1CCC[C@H]1CC(N)=O)C(C)(C)C ({Benzenesulfonyl(4-Cl,3-CF3)-γGlu}-GL[Tle][β3hP]-NH2) | 7.7 nM | 240 nM | IC50 [3]: 55000 nM; IC50 [4]: > 100000 nM; Ratio IC50 [5]: > 13000; Ratio IC50 [6]: 380; Ratio IC50 [7]: > 13000; Ratio IC50 [8]: 7100; Ratio IC50 [9]: > 13000; IC50 [10]: > 100000 nM; IC50 [11]: 2900 nM; Ratio IC50 [12]: 12000; IC50 [13]: 92000 nM; Ratio IC50 [14]: 1100; IC50 [15]: > 100000 nM; IC50 [16]: 8500 nM; Ratio IC50 [17]: 31
CC(C)(C)[C@H](NC(=O)[C@H](Cc1nccs1)NC(=O)CNC(=O)CC[C@H](NS(=O)(=O)c1ccc(Cl)c(C(F)(F)F)c1)C(=O)O)C(=O)N1CCC[C@H]1CC(N)=O ({Benzenesulfonyl(4-Cl,3-CF3)-γGlu}-G[Ala(thiazol-2-yl)][Tle][β3hP]-NH2) | 9.6 nM | 3800 nM | –
CC(C)(C)[C@H](NC(=O)[C@H](Cc1cscn1)NC(=O)CNC(=O)CC[C@H](NS(=O)(=O)c1ccc(Cl)c(C(F)(F)F)c1)C(=O)O)C(=O)N1CCC[C@H]1CC(N)=O ({Benzenesulfonyl(4-Cl,3-CF3)-γGlu}-G[Ala(4-thiazolyl)][Tle][β3hP]-NH2) | 3.8 nM | 930 nM | –
CC(C)(C)[C@H](NC(=O)[C@H](Cc1ccccc1)NC(=O)CNC(=O)CC[C@H](NS(=O)(=O)c1ccc(Cl)c(C(F)(F)F)c1)C(=O)O)C(=O)N1CCC[C@H]1CC(N)=O ({Benzenesulfonyl(4-Cl,3-CF3)-γGlu}-GF[Tle][β3hP]-NH2) | 13 nM | 3200 nM | –

From ChEMBL document CHEMBL5370641, “Structure-Based Optimization and Biological Evaluation of Potent and Selective MMP-7 Inhibitors for Kidney Fibrosis” (J Med Chem, 2023)
